Results: patent US20050014144A1, “Methods” (priority 2001, published 2005)

Test system: P. aphanidermatum cytochrome b gene F129 and L129 alleles
Assay: ARMS/Scorpion F129L SNP detection assay (Ct of allele selective primers on plasmid DNA templates)
Set-up: species or system Pythium aphanidermatum
Conditions: for ΔCt: between C and A plasmid template; for ΔCt / A Ct / C Ct: 2×10^6 molecules/ul; for A Ct: mutant (L129) plasmid template; for NTC amplification: no template (water only) control; for C Ct: wild type (F129) plasmid template; for Observed A:C ratio: plasmid templates 2×10^6 molecules/ul
Method: In all ARMS/Scorpion™ F129L SNP detection assays AmpliTaq Gold enzyme (Applied Biosystems) was included in the reaction mixes at 1 unit/25 μl reaction. The reaction mix also contained 1× buffer (10 mM Tris-HCl (pH8.3), 50 mM KCl, 3.5 mM MgCl2, 0.01% gelatine) and 100 μM dNTPs (Amersham Pharmacia Biotech). Amplifications were performed in an ABI Prism 7700 instrument for continuous fluorescence monitoring. A preliminary cycle of 95° C. for 10 minutes was performed followed by 50 cycles of 95° C. for 15 sec and 60° C. for 45 sec. Fluorescence was monitored during the annealing/extension stage throughout all cycles.
Primers were first validated for use in such analyses by using plasmid DNA, at various concentrations, as template. This was performed in order to check the specificity and sensitivity of the primer designs. Partial wild type cytochrome b gene sequence and the corresponding tract containing the F129L mutation amplified from two P. aphanidermatum isolates were cloned into the TA pCR2.1 vector (Invitrogen) as described previously in example 2. 150 ul of the bacterial culture, from the 10 transformants from each cloning event picked for Wizard Plus plasmid DNA Preparations (Promega) (see example 2), was saved prior to carrying out these preparations and stored at 4° C. Following sequence analysis wild type and mutant plasmid DNA samples that contained no sequence differences from the consensus sequence were noted. The bacterial culture from which these wild type and mutant plasmid DNA sequences originated was picked for plasmid DNA maxipreps (Qiagen) following the manufacturers protocol. The resulting plasmid DNA was quantified and diluted to a concentration of 1 ug/ul (2×10^11 molecules/ul) using sterile double distilled H2O.
The wild type and mutant plasmid DNA cassettes were diluted further to a concentration of 10 pg/ul (or 2×10^6 molecules/ul) in double distilled H2O and used as template to validate the specificity of the ARMS primers. Each ARMS primer was tested on wild type and mutant template as well as a no template (water only) control, under the PCR conditions described above. The Pt129-1 and Pt129-4 primers were preferred to the Pt129-2 and Pt129-3 and the Pt129-5 and Pt129-6 primers as duplicate PCRs gave more consistent results and were more specific. Wild type ARMS primer Pt129-1 gave a window of 15.27 cycles before amplification occurred on the inappropriate (mutant) template (FIG. 7). Mutant ARMS primer Pt129-4 gave a window of 16.96 cycles before amplification occurred on the inappropriate (wild type) template (FIG. 8).
Following the selection of a suitable ARMS primer for the detection of the point mutation the assay was validated further, so that its sensitivity of detection was fully understood before it was used to test biological samples for the presence of the L129 mutation. The first validation step was to establish if the window of specificity varied for the chosen ARMS primers over a 6 orders of magnitude range of wild type and mutant template DNA concentration. The wild type and mutant plasmid DNA cassettes described previously were diluted in Bovine Serum Albumin (BSA) (Fraction V Powder minimum 96%, Sigma A9647) at a concentration of 1 mg/ml through a 10 fold dilution series. The template concentrations covered the range 2×10^8 molecules/ul to 2×10^2 molecules/ul. Both plasmid DNA cassettes and a no template (water only) control were tested in the ARMS/Scorpion assay using primers Pt129-1, Pt129-4 and Pt129-S, as described above.
In all ARMS/Scorpion™ F129L SNP detection assays AmpliTaq Gold enzyme (Perkin-Elmer/ABI) was included in the reaction mixes at 1 unit/25 μl reaction. The reaction mix also contained 1× buffer (10 mM Tris-HCl (pH8.3), 50 mM KCl, 3.5 mM MgCl2, 0.01% gelatine) and 100 μM dNTPs (Amersham Pharmacia Biotech). Amplifications were performed in an ABI Prism 7700 instrument for continuous fluorescence monitoring. […]

Pt129-A13 (DNA ACCCCAAGGTAATACATAACTCGTT; chemistry not given here)
ΔCt: 18.8 | A Ct: 41.99 | NTC amplification: none | C Ct: 23.19

Pt129-C1 (DNA ACCCCAAGGTAATACATAACCCAAG; chemistry not given here)
ΔCt: 16.81 | A Ct: 42.6 | NTC amplification: none | C Ct: 25.79

Pt129-A2 (DNA ACCCCAAGGTAATACATAACCCACT; chemistry not given here)
ΔCt: 13.14 | A Ct: 20.87 | NTC amplification: none | C Ct: 34.01

Pt129-A11 (DNA ACCCCAAGGTAATACATAACACCTT; chemistry not given here)
ΔCt: 6.4 | A Ct: 31.25 | NTC amplification: none | C Ct: 24.85

Pt129-C5 (DNA ACCCCAAGGTAATACATAACCCCTG; chemistry not given here)
ΔCt: 22.26 | A Ct: 42.36 | NTC amplification: none | C Ct: 20.1

Pt129-A4 (DNA ACCCCAAGGTAATACATAACCCTTT; chemistry not given here)
ΔCt: 14.38 | A Ct: 24.42 | NTC amplification: none | C Ct: 38.8

Pt129-A3 (DNA ACCCCAAGGTAATACATAACCCAGT; chemistry not given here)
ΔCt: 8.91 | A Ct: 31.29 | NTC amplification: none | C Ct: 40.2

Pt129-S6 (DNA TTGACCCCAAGGTAATACATAACTC; chemistry not given here)
A Ct: 20.84 | NTC amplification: none | C Ct: 20.43

Pt129-A6 (DNA ACCCCAAGGTAATACATAACCCGTT; chemistry not given here)
ΔCt: 12.17 | A Ct: 21.3 | NTC amplification: none | C Ct: 33.47

Pt129-C6 (DNA ACCCCAAGGTAATACATAACCCGTG; chemistry not given here)
ΔCt: 24.54 | A Ct: 44.17 | NTC amplification: none | C Ct: 19.63

Pt129-C3 (DNA ACCCCAAGGTAATACATAACCCAGG; chemistry not given here)
A Ct: no A | NTC amplification: none | Observed A:C ratio: all C | C Ct: 29.7

Pt129-A15 (DNA ACCCCAAGGTAATACATAACGCGTT; chemistry not given here)
A Ct: no C | NTC amplification: none | Observed A:C ratio: all A | C Ct: 30.05

Pt129-A7 (DNA ACCCCAAGGTAATACATAACTCACT; chemistry not given here)
ΔCt: 14.05 | A Ct: 36.33 | NTC amplification: none | C Ct: 22.28

Pt129-A8 (DNA ACCCCAAGGTAATACATAACACACT; chemistry not given here)
ΔCt: 13.76 | A Ct: 35.87 | NTC amplification: none | C Ct: 22.11

Pt129-A9 (DNA ACCCCAAGGTAATACATAACGCACT; chemistry not given here)
ΔCt: 14.96 | A Ct: 37.1 | NTC amplification: none | C Ct: 22.14

Pt129-A5 (DNA ACCCCAAGGTAATACATAACCCCTT; chemistry not given here)
ΔCt: 11.09 | A Ct: 21.42 | NTC amplification: none | C Ct: 32.51

Pt129-A10 (DNA ACCCCAAGGTAATACATAACTCCTT; chemistry not given here)
ΔCt: 4.2 | A Ct: 31.4 | NTC amplification: none | C Ct: 27.2

Pt129-A12 (DNA ACCCCAAGGTAATACATAACGCCTT; chemistry not given here)
ΔCt: 2.7 | A Ct: 30.16 | NTC amplification: none | C Ct: 27.46

Pt129-C2 (DNA ACCCCAAGGTAATACATAACCCACG; chemistry not given here)
ΔCt: 23.15 | A Ct: 43.57 | NTC amplification: none | C Ct: 20.42

Pt129-A1 (DNA ACCCCAAGGTAATACATAACCCAAT; chemistry not given here)
ΔCt: 5.79 | A Ct: 26.54 | NTC amplification: none | C Ct: 32.33
